Reference: US8435939B2, “Polypeptide anti-HIV agent containing the same” (priority 2000, dated 2013)
Where a SMILES comes first, the peptide text is derived from it. Bridges are numbered along the chain shown (N, C = ends). [ ]: non-standard residue; d: D form. 2Nal = N[C@@H](Cc1ccc2ccccc2c1)C(=O)O; Cit = NC(=O)NCCC[C@H](N)C(=O)O

What was measured:
Format in all cases: cell-based
[1] = tested on: HIV-1 (IIIB) strain; experiment: Anti-HIV activity: inhibition of MT-4 cell death by HIV infection (MTT method); settings: MT-4 CD4+ T cells infected by HIV-1 (IIIB), 37° C., 5 days, MTT; average of at least three measurements; read-out: EC50 (concentration where MT-4 cell death by HIV infection is inhibited by 50%)
Method: (§1) HIV-1 (IIIB) strain obtained from MOLT/HIV-1 (IIIB) cell previously infected by HIV-1 was used. The polypeptide of the present invention was added to MT-4 CD4^+ T cells infected by HIV in various kinds of concentrations, and a number of living cells after culturing at 37° C. for 5 days was determined by using a 3′-(4,5-dimethylthiazol-2-yl)-2,5-diphenyltetrazolinium bromide (MTT) method. Anti-HIV activity is shown by a concentration (EC50 value), where MT-4 cell death by HIV infection is inhibited by 50%. Cytotoxicity of the peptide according to the present invention was shown by a 50% survival concentration (Test I: CC50 value) by culturing virus-uninfected MT-4 cells with the polypeptide according to the present invention in various concentrations, and determining a number of living cells by the MTT method. Moreover, a number of living cells of human peripheral blood mononuclear cells (monocyte) (PBMC) was determined by trypan blue dyeing method, and shown by a 50% survival concentration (Test II: CC50 value). Respective ratios of the CC50 value and the EC50 value were shown as a selective index (SI). Obtained values were summarized in Table 3 using the conventionally known polypeptides T134 and T140, and an anti-HIV compound: 3′-azido-2′,3′-dideoxythymidine (AZT) used as a medicine as a control anti-HIV agent.

[2] = Cytotoxicity Test I: virus-uninfected MT-4 cells, MTT method; settings: human, MT-4 cells (virus-uninfected); virus-uninfected MT-4 cells, MTT method; read-out: CC50 (Test I), 50% survival concentration
Method: as §1

[3] = tested on: virus-uninfected MT-4 cells; experiment: as above; settings: selective index, MT-4 CC50 over anti-HIV EC50
Method: as §1

Row | SMILES | EC50 [1] [nM] | CC50 [2] [nM] | SI: CC50 (Test I)/EC50 [3]
1 | N=C(N)NCCC[C@H](NC(=O)[C@@H]1CSSC[C@H](NC(=O)[C@H](Cc2c[nH]c3ccccc23)NC(=O)[C@H](CCCNC(=N)N)NC(=O)[C@@H](N)CCCNC(=N)N)C(=O)N[C@@H](Cc2ccc(O)cc2)C(=O)N[C@@H](CCCNC(=N)N)C(=O)N[C@@H](CCCCN)C(=O)N[C@H](CCCCN)C(=O)N2CCC[C@H]2C(=O)N[C@@H](Cc2ccc(O)cc2)C(=O)N[C@@H](CCCNC(=N)N)C(=O)N[C@@H](CCCNC(N)=O)C(=O)N1)C(=O)O [Compound T134, H-Arg-Arg-Trp-Cys-Tyr-Arg-Lys-DLys-Pro-Tyr-Arg-Cit-Cys-Arg-OH, reference compound] (H-RRWCYRK[dK]PYR[Cit]CR-OH; disulfide 4-13) | 8.3 | – | –
2 | N=C(N)NCCC[C@H](NC(=O)[C@@H]1CSSC[C@H](NC(=O)[C@H](Cc2ccc3ccccc3c2)NC(=O)[C@H](CCCNC(=N)N)NC(=O)[C@@H](N)CCCNC(=N)N)C(=O)N[C@@H](Cc2ccc(O)cc2)C(=O)N[C@@H](CCCNC(=N)N)C(=O)N[C@@H](CCCCN)C(=O)N[C@H](CCCCN)C(=O)N2CCC[C@H]2C(=O)N[C@@H](Cc2ccc(O)cc2)C(=O)N[C@@H](CCCNC(=N)N)C(=O)N[C@@H](CCCNC(N)=O)C(=O)N1)C(=O)O [Compound T140, H-Arg-Arg-Nal-Cys-Tyr-Arg-Lys-DLys-Pro-Tyr-Arg-Cit-Cys-Arg-OH, reference compound] (H-RR[2Nal]CYRK[dK]PYR[Cit]CR-OH; disulfide 4-13) | 3.3 | – | –
3 | C[C@@H]1NC(=O)[C@H](Cc2ccc(O)cc2)NC(=O)[C@@H](NC(=O)[C@H](Cc2ccc3ccccc3c2)NC(=O)[C@H](CCCNC(=N)N)NC(=O)[C@@H](N)CCCNC(=N)N)CSSC[C@@H](C(=O)N[C@@H](CCCNC(=N)N)C(=O)O)NC(=O)[C@H](CCCNC(N)=O)NC(=O)[C@H](CCCNC(=N)N)NC(=O)[C@H](Cc2ccc(O)cc2)NC(=O)[C@@H]2CCCN2C(=O)[C@@H](CCCCN)NC(=O)[C@H](CCCCN)NC1=O [TA14005, H-Arg-Arg-Nal-Cys-Tyr-Ala-Lys-DLys-Pro-Tyr-Arg-Cit-Cys-Arg-OH] (H-RR[2Nal]CYAK[dK]PYR[Cit]CR-OH; disulfide 4-13) | 9.3 | – | –
4 | C[C@@H]1NC(=O)[C@H](Cc2ccc(O)cc2)NC(=O)[C@@H](NC(=O)[C@H](Cc2ccc3ccccc3c2)NC(=O)[C@H](CCCN=C(N)N)NC(=O)[C@@H](N)CCCN=C(N)N)CSSC[C@@H](C(=O)N[C@@H](CCCN=C(N)N)C(=O)O)NC(=O)[C@H](CCCNC(N)=O)NC(=O)[C@H](CCCN=C(N)N)NC(=O)[C@H](Cc2ccc(O)cc2)NC(=O)[C@@H]2CCCN2C(=O)[C@@H](CCCCN)NC(=O)[C@H](CCCCN)NC1=O [TA14005, H-Arg-Arg-Nal-Cys-Tyr-Ala-Lys-DLys-Pro-Tyr-Arg-Cit-Cys-Arg-OH] (H-RR[2Nal]CYAK[dK]PYR[Cit]CR-OH; disulfide 4-13) | – | > 40000 | >4500
5 | C[C@@H]1NC(=O)[C@H](CCCNC(=N)N)NC(=O)[C@H](Cc2ccc(O)cc2)NC(=O)[C@@H](NC(=O)[C@H](Cc2ccc3ccccc3c2)NC(=O)[C@H](CCCNC(=N)N)NC(=O)[C@@H](N)CCCNC(=N)N)CSSC[C@@H](C(=O)N[C@@H](CCCNC(=N)N)C(=O)O)NC(=O)[C@H](CCCNC(N)=O)NC(=O)[C@H](CCCNC(=N)N)NC(=O)[C@H](Cc2ccc(O)cc2)NC(=O)[C@@H]2CCCN2C(=O)[C@@H](CCCCN)NC1=O [TA14006, H-Arg-Arg-Nal-Cys-Tyr-Arg-Ala-DLys-Pro-Tyr-Arg-Cit-Cys-Arg-OH] (H-RR[2Nal]CYRA[dK]PYR[Cit]CR-OH; disulfide 4-13) | 47 | – | –
6 | C[C@@H]1NC(=O)[C@H](CCCN=C(N)N)NC(=O)[C@H](Cc2ccc(O)cc2)NC(=O)[C@@H](NC(=O)[C@H](Cc2ccc3ccccc3c2)NC(=O)[C@H](CCCN=C(N)N)NC(=O)[C@@H](N)CCCN=C(N)N)CSSC[C@@H](C(=O)N[C@@H](CCCN=C(N)N)C(=O)O)NC(=O)[C@H](CCCNC(N)=O)NC(=O)[C@H](CCCN=C(N)N)NC(=O)[C@H](Cc2ccc(O)cc2)NC(=O)[C@@H]2CCCN2C(=O)[C@@H](CCCCN)NC1=O [TA14006, H-Arg-Arg-Nal-Cys-Tyr-Arg-Ala-DLys-Pro-Tyr-Arg-Cit-Cys-Arg-OH] (H-RR[2Nal]CYRA[dK]PYR[Cit]CR-OH; disulfide 4-13) | – | > 80000 | >1800
7 | C[C@H]1NC(=O)[C@H](CCCCN)NC(=O)[C@H](CCCNC(=N)N)NC(=O)[C@H](Cc2ccc(O)cc2)NC(=O)[C@@H](NC(=O)[C@H](Cc2ccc3ccccc3c2)NC(=O)[C@H](CCCNC(=N)N)NC(=O)[C@@H](N)CCCNC(=N)N)CSSC[C@@H](C(=O)N[C@@H](CCCNC(=N)N)C(=O)O)NC(=O)[C@H](CCCNC(N)=O)NC(=O)[C@H](CCCNC(=N)N)NC(=O)[C@H](Cc2ccc(O)cc2)NC(=O)[C@@H]2CCCN2C1=O [TA14007, H-Arg-Arg-Nal-Cys-Tyr-Arg-Lys-DAla-Pro-Tyr-Arg-Cit-Cys-Arg-OH] (H-RR[2Nal]CYRK[dA]PYR[Cit]CR-OH; disulfide 4-13) | 16 | – | –
8 | C[C@H]1NC(=O)[C@H](CCCCN)NC(=O)[C@H](CCCN=C(N)N)NC(=O)[C@H](Cc2ccc(O)cc2)NC(=O)[C@@H](NC(=O)[C@H](Cc2ccc3ccccc3c2)NC(=O)[C@H](CCCN=C(N)N)NC(=O)[C@@H](N)CCCN=C(N)N)CSSC[C@@H](C(=O)N[C@@H](CCCN=C(N)N)C(=O)O)NC(=O)[C@H](CCCNC(N)=O)NC(=O)[C@H](CCCN=C(N)N)NC(=O)[C@H](Cc2ccc(O)cc2)NC(=O)[C@@H]2CCCN2C1=O [TA14007, H-Arg-Arg-Nal-Cys-Tyr-Arg-Lys-DAla-Pro-Tyr-Arg-Cit-Cys-Arg-OH] (H-RR[2Nal]CYRK[dA]PYR[Cit]CR-OH; disulfide 4-13) | – | > 80000 | >5200
9 | C[C@@H]1NC(=O)[C@@H](CCCCN)NC(=O)[C@H](CCCCN)NC(=O)[C@H](CCCNC(=N)N)NC(=O)[C@H](Cc2ccc(O)cc2)NC(=O)[C@@H](NC(=O)[C@H](Cc2ccc3ccccc3c2)NC(=O)[C@H](CCCNC(=N)N)NC(=O)[C@@H](N)CCCNC(=N)N)CSSC[C@@H](C(=O)N[C@@H](CCCNC(=N)N)C(=O)O)NC(=O)[C@H](CCCNC(N)=O)NC(=O)[C@H](CCCNC(=N)N)NC(=O)[C@H](Cc2ccc(O)cc2)NC1=O [TA14008, H-Arg-Arg-Nal-Cys-Tyr-Arg-Lys-DLys-Ala-Tyr-Arg-Cit-Cys-Arg-OH] (H-RR[2Nal]CYRK[dK]AYR[Cit]CR-OH; disulfide 4-13) | 17 | – | –
10 | C[C@@H]1NC(=O)[C@@H]2CCCN2C(=O)[C@@H](CCCCN)NC(=O)[C@H](CCCCN)NC(=O)[C@H](CCCNC(=N)N)NC(=O)[C@H](Cc2ccc(O)cc2)NC(=O)[C@@H](NC(=O)[C@H](Cc2ccc3ccccc3c2)NC(=O)[C@H](CCCNC(=N)N)NC(=O)[C@@H](N)CCCNC(=N)N)CSSC[C@@H](C(=O)N[C@@H](CCCNC(=N)N)C(=O)O)NC(=O)[C@H](CCCNC(N)=O)NC(=O)[C@H](CCCNC(=N)N)NC1=O [TA14009, H-Arg-Arg-Nal-Cys-Tyr-Arg-Lys-DLys-Pro-Ala-Arg-Cit-Cys-Arg-OH] (H-RR[2Nal]CYRK[dK]PAR[Cit]CR-OH; disulfide 4-13) | 17 | – | –
11 | N=C(N)NCCC[C@H](NC(=O)[C@@H]1CSSC[C@H](NC(=O)[C@H](Cc2ccc3ccccc3c2)NC(=O)[C@H](CCCNC(=N)N)NC(=O)[C@@H](N)CCCNC(=N)N)C(=O)N[C@@H](Cc2ccc(O)cc2)C(=O)N[C@@H](CCCNC(N)=O)C(=O)N[C@@H](CCCCN)C(=O)N[C@H](CCCCN)C(=O)N2CCC[C@H]2C(=O)N[C@@H](Cc2ccc(O)cc2)C(=O)N[C@@H](CCCNC(=N)N)C(=O)N[C@@H](CCCNC(N)=O)C(=O)N1)C(=O)O [TC14003, H-Arg-Arg-Nal-Cys-Tyr-Cit-Lys-DLys-Pro-Tyr-Arg-Cit-Cys-Arg-OH] (H-RR[2Nal]CY[Cit]K[dK]PYR[Cit]CR-OH; disulfide 4-13) | 2.8 | – | –
12 | N=C(N)NCCC[C@H](NC(=O)[C@@H]1CSSC[C@H](NC(=O)[C@H](Cc2ccc3ccccc3c2)NC(=O)[C@H](CCCNC(=N)N)NC(=O)[C@@H](N)CCCNC(=N)N)C(=O)N[C@@H](Cc2ccc(O)cc2)C(=O)N[C@@H](CCCNC(=N)N)C(=O)N[C@@H](CCCNC(N)=O)C(=O)N[C@H](CCCCN)C(=O)N2CCC[C@H]2C(=O)N[C@@H](Cc2ccc(O)cc2)C(=O)N[C@@H](CCCNC(=N)N)C(=O)N[C@@H](CCCNC(N)=O)C(=O)N1)C(=O)O [TC14004, H-Arg-Arg-Nal-Cys-Tyr-Arg-Cit-DLys-Pro-Tyr-Arg-Cit-Cys-Arg-OH] (H-RR[2Nal]CYR[Cit][dK]PYR[Cit]CR-OH; disulfide 4-13) | 16 | – | –
13 | N=C(N)NCCC[C@H](NC(=O)[C@@H]1CSSC[C@H](NC(=O)[C@H](Cc2ccc3ccccc3c2)NC(=O)[C@H](CCCNC(=N)N)NC(=O)[C@@H](N)CCCNC(=N)N)C(=O)N[C@@H](Cc2ccc(O)cc2)C(=O)N[C@@H](CCCNC(=N)N)C(=O)N[C@@H](CCCCN)C(=O)N[C@H](CCCCN)C(=O)N2CCC[C@H]2C(=O)N[C@@H](Cc2ccc(O)cc2)C(=O)N[C@@H](CCCNC(N)=O)C(=O)N[C@@H](CCCNC(N)=O)C(=O)N1)C(=O)O [TC14006, H-Arg-Arg-Nal-Cys-Tyr-Arg-Lys-DLys-Pro-Tyr-Cit-Cit-Cys-Arg-OH] (H-RR[2Nal]CYRK[dK]PY[Cit][Cit]CR-OH; disulfide 4-13) | 15 | – | –
